# From ChEMBL document CHEMBL1201862, “PubChem BioAssay data set” (2004)
# The source made the active and inactive calls.
# Legend:
# [1] = Counterscreen for IDE inhibitors: Luminescence-based cell-based high throughput dose response assay to identify compounds that are cytotoxic to HEK cells. [Related pubchem assays: 434962 (Primary screen (IDE inhibitors in singlicate)), 449730 (Counterscreen (Cytotoxicity in triplicate)), 435028 (Confirmation (IDE inhibitors in triplicate)) …; assay type: functional; settings: HEK293
# Leucine aminopeptidase = biological target: T1, Leucine aminopeptidase (Plasmodium falciparum 3D7, UniProt Q8IL11); experiment: P. falciparum M17LAP inhibitors, primary screen, biochemical, fluorogenic H-Leu-NHMec substrate, 1536-well (AID 1619); assay type: functional
# T1 sequence (Q8IL11 whole entry): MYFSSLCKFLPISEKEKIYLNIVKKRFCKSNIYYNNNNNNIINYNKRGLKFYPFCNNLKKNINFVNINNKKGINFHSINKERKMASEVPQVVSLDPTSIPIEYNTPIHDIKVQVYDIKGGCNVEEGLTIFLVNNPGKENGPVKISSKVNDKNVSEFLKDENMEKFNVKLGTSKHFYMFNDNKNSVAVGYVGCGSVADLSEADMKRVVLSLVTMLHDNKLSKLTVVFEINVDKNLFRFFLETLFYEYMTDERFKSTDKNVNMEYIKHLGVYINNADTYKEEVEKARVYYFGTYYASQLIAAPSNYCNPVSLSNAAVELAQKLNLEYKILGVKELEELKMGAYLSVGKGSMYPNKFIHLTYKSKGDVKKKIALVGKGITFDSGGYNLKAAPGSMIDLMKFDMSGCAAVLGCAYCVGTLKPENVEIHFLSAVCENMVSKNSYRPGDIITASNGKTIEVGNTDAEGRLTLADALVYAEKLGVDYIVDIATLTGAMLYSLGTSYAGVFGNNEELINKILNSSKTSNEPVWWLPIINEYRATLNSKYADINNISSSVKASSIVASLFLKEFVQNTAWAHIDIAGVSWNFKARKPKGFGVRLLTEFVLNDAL
# Insulin-degrading enzyme = biological target: T2, Insulin-degrading enzyme (Homo sapiens, UniProt P14735); experiment: Dose Response: Fluorescence polarization-based cell-based high throughput dose response assay for inhibitors of insulin-degrading enzyme (IDE). [Related pubchem assays: 434962 (Primary screen (IDE inhibitors in singlicate)), 449730 (Counterscreen (Cytotoxicity in triplicate)), 435028 (Confirmation (IDE inhibitors in triplicate)), 434984 (Summary …; assay type: functional
# T2 sequence (P14735 whole entry): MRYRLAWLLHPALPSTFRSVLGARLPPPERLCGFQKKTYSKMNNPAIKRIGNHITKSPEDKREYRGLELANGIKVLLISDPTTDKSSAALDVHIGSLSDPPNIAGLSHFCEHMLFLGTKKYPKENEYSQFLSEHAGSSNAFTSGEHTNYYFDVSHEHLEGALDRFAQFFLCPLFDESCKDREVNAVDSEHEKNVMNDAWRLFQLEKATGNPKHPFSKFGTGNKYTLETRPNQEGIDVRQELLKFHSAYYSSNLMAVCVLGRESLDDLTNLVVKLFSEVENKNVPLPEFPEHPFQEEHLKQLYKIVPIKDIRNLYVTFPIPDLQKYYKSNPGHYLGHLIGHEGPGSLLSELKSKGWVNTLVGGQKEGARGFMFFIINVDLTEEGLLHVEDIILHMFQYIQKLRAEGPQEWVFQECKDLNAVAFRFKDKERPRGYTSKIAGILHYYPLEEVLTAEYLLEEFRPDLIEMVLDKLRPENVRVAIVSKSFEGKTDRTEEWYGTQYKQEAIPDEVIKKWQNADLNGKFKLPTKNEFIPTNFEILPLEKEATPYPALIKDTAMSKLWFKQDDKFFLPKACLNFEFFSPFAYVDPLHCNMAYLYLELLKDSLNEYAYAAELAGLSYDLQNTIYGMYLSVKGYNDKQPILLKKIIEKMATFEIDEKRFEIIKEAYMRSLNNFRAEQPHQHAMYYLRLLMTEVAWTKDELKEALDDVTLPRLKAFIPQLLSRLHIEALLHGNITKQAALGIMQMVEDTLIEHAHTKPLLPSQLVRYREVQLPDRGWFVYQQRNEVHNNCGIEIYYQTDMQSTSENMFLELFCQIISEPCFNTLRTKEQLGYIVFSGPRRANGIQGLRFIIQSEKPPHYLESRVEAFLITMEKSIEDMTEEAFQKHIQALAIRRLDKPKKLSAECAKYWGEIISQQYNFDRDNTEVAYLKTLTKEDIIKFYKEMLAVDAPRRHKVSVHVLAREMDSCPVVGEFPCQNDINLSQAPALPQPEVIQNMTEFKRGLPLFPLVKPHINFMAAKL
# [2] = mitochondrial function rescue without frataxin homolog – Friedreich's ataxia, plus single-dose screen, dose response (AID 1465); assay type: functional;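 further: yeast depleted of Yfh1p frataxin homolog grown on glycerol needing respiration; WST-1 tetrazolium dye reduction as measure of cellular dehydrogenase metabolic activity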
# Cytochrome P450 2D6 = Cytochrome P450 2D6 (Homo sapiens, UniProt P10635); experiment: qHTS Assay for Inhibitors and Substrates of Cytochrome P450 2D6. [Related pubchem assays: 410 ]; assay type: ADME; settings: read-out: Potency
# Cytochrome P450 2D6, sequence (P10635 whole entry): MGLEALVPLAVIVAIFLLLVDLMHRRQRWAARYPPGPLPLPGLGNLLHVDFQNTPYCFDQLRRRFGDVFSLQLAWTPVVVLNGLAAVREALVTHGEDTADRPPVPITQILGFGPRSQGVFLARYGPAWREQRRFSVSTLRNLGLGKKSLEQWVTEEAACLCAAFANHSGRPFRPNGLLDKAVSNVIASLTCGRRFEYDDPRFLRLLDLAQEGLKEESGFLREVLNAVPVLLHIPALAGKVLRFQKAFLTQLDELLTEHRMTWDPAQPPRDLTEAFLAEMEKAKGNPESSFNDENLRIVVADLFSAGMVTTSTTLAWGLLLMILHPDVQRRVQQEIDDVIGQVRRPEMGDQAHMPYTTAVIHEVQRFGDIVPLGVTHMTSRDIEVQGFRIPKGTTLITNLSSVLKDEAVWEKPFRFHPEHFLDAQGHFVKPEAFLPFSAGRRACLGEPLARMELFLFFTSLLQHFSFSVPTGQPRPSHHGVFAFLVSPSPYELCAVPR
# Vero = experiment: viability of Vero cells under compound – cytotoxicity control for flavivirus capping enzyme inhibitors (AID 588742); assay type: functional; settings: Chlorocebus sabaeus
# [3] = biological target: Induced myeloid leukemia cell differentiation protein Mcl-1 (Homo sapiens, UniProt Q07820); assay type: functional
# Induced myeloid leukemia cell differentiation protein Mcl-1, sequence (Q07820 whole entry): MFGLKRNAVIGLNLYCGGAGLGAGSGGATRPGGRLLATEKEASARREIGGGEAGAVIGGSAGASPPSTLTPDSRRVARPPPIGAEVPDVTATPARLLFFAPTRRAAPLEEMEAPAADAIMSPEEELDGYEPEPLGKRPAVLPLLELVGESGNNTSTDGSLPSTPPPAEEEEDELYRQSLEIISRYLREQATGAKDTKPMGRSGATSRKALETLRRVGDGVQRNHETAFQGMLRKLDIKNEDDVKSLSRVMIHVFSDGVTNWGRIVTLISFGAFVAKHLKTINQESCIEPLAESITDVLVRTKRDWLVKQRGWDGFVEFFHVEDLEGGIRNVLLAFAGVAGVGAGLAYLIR
# HEK293 [4] = experiment: cells; assay type: functional, cell-based; settings: Homo sapiens
# [5] = biological target: Transitional endoplasmic reticulum ATPase (Homo sapiens, UniProt P55072); experiment: p97 ATPase inhibitors, dose response, biochemical (AID 1534)
# Transitional endoplasmic reticulum ATPase (Homo sapiens, UniProt P55072), sequence (P55072 whole entry): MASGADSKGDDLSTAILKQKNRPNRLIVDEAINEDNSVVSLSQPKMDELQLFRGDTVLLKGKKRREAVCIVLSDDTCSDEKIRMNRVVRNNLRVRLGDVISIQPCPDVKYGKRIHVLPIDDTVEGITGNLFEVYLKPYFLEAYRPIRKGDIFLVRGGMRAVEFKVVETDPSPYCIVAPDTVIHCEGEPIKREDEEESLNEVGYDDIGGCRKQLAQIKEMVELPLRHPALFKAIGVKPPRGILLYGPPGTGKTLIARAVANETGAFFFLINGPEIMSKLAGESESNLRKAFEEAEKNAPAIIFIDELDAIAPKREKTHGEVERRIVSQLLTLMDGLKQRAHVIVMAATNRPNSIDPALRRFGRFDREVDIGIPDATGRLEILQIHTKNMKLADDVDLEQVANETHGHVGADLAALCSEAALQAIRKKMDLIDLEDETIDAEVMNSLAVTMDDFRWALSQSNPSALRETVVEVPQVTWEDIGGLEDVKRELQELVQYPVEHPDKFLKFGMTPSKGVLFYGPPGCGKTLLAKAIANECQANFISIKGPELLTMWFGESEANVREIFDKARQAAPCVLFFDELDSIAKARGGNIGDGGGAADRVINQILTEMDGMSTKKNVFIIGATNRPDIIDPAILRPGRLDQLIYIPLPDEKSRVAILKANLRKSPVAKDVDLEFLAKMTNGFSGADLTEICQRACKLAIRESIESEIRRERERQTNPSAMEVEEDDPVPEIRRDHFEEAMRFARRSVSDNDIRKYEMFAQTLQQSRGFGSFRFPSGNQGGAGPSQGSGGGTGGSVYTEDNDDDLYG
# HEK293 [6] = experiment: cells; assay type: functional, cell-based; settings: Homo sapiens; remark: listed apart in the source
# Nonstructural protein 1 = Nonstructural protein 1 (Influenza A virus, UniProt Q194T2); assay type: functional, Influenza A virus (A/California/07/2009(H1N1))
# Nonstructural protein 1, sequence (Q194T2 whole entry): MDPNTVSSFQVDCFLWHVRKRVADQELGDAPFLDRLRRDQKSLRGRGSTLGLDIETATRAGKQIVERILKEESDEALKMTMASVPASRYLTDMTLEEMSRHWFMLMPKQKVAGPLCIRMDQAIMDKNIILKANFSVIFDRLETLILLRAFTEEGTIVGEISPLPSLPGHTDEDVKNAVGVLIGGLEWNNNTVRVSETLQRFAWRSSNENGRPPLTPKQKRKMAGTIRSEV
# [7] = biological target: Transitional endoplasmic reticulum ATPase (Homo sapiens, UniProt P55072, C522A); experiment: C522A mutant p97 ATPase inhibitors, dose response, counter-screen for p97 inhibitor project, biochemical, luminescence (AID 1544)
# Transitional endoplasmic reticulum ATPase (Homo sapiens, UniProt P55072, C522A), sequence (P55072 2-806 C522A limits assumed): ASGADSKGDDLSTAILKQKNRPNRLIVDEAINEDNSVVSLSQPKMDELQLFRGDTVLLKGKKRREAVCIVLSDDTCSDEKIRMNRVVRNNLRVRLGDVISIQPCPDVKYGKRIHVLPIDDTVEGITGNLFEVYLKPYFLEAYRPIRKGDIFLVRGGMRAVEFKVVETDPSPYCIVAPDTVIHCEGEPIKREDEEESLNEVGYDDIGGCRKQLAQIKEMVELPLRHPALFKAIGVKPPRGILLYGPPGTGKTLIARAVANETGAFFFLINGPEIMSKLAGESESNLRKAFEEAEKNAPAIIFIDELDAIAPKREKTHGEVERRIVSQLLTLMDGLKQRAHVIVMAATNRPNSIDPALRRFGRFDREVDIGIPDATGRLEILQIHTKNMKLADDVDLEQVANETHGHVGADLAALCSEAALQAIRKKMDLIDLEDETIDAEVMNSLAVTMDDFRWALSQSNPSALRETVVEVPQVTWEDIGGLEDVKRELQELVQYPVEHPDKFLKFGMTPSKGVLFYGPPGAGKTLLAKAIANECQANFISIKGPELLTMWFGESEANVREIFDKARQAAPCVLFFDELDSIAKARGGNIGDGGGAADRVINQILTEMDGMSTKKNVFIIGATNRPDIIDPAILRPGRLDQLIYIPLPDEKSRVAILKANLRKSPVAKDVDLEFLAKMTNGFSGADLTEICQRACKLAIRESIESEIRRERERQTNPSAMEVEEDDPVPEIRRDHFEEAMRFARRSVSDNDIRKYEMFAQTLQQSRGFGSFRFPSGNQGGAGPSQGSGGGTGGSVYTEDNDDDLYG
# Genome polyprotein = Genome polyprotein (dengue virus type 2, UniProt P29990); experiment: flavivirus cap methylation enzyme inhibition – biochemical, confirmation dose response, primary screen (AID 588689); assay type: functional
# HEK293 [8] = experiment: inhibition of NOD1-driven NF-kB reporter – cell-based, luminescence, uHTS, primary screen (AID 1578); assay type: functional; settings: Homo sapiens
# [9] = CCR5-tropic HIV-1 fusion blockers – cell-based, CCR5-tropic Env, dose response (AID 2279); assay type: functional
# HEK293 [10] = experiment: NOD2 signaling inhibitors in MDP-stimulated cells, cell-based, uHTS, luminescence (AID 2001); assay type: functional; settings: Homo sapiens
# [11] = biological target: T3, Histone-lysine N-methyltransferase NSD2 (Homo sapiens, UniProt O96028); assay type: biochemical
# T3 sequence (O96028 whole entry): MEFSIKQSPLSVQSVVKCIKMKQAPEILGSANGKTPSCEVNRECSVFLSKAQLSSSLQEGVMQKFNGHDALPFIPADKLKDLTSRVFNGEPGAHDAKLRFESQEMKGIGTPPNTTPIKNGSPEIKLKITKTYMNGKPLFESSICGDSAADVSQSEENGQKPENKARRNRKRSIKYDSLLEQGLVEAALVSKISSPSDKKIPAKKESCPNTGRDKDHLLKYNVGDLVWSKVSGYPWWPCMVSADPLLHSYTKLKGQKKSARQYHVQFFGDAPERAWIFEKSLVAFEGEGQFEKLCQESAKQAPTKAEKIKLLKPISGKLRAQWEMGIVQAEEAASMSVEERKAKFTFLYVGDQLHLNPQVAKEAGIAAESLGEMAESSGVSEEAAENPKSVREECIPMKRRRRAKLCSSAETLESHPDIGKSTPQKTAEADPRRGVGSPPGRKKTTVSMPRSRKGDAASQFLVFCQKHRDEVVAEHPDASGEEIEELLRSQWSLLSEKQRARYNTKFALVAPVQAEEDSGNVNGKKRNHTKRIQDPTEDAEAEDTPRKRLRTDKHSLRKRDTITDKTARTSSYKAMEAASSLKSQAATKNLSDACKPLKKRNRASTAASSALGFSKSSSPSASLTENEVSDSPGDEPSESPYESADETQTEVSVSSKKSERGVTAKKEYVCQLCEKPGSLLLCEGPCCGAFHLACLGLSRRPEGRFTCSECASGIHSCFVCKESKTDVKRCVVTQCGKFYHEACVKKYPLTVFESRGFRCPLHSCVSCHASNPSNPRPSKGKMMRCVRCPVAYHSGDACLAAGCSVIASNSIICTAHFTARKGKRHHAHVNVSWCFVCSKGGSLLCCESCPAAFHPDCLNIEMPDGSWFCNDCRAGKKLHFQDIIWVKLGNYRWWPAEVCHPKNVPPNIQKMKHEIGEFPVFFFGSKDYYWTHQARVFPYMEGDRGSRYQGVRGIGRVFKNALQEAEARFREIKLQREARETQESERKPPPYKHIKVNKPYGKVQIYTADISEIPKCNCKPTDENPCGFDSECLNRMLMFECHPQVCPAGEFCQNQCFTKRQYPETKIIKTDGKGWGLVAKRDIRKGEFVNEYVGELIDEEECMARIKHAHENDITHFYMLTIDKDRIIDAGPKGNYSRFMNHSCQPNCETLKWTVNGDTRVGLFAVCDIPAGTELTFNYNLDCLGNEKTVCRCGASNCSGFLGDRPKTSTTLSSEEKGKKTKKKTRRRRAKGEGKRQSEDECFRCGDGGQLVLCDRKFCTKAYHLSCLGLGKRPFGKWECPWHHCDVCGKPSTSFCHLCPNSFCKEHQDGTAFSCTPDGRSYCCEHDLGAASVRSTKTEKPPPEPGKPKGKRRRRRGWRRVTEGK
# [12] = NIH3T3 cell viability loss – ATP luminescence, mouse fibroblasts, counter-screen, dose response (AID 2010); assay type: functional, cell-based;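 further: cells exposed to compound for about 90 hours before reading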
# [13] = biological target: T4, Neuropeptides B/W receptor type 1 (Homo sapiens, UniProt P48145); experiment: Fluorescence-based dose response cell-based high throughput screening assay to identify antagonists of the G-protein coupled receptor 7 (GPR7). [Related pubchem assays: 1952 (Screening assay (GPR7 antagonists).), 1880 (Summary AID.)]; assay type: functional
# T4 sequence (P48145 whole entry): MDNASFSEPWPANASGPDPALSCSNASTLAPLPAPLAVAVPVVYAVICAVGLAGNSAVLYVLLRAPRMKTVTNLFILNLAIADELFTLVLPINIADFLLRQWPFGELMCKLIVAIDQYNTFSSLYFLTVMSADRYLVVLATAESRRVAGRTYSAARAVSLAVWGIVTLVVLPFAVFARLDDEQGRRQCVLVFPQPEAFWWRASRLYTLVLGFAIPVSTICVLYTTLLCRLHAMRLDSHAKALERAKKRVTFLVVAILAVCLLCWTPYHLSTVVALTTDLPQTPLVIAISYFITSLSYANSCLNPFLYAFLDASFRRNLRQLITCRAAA
# [14] = Trypanosoma cruzi growth suppression in host cells – NIH3T3 host cells, beta-gal luminescence, confirmation (AID 2044); assay type: functional, cell-based;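 further: intracellular parasites grown in NIH/3T3 mouse fibroblasts as host cells; luminescent beta-galactosidase reporter signal from transgenic T. cruzi replicating inside host cells; inhibitors lower the luminescence signal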
# [15] = biological target: Melanin-concentrating hormone receptor 1 (Homo sapiens, UniProt Q99705); experiment: Fluorescence-based counterscreen for antagonists of the G-protein coupled receptor 7 (GPR7): cell-based high throughput dose response assay to identify antagonists of the melanin-concentrating hormone receptor 1 (MCHR1).; assay type: functional
# Melanin-concentrating hormone receptor 1, sequence (Q99705 whole entry): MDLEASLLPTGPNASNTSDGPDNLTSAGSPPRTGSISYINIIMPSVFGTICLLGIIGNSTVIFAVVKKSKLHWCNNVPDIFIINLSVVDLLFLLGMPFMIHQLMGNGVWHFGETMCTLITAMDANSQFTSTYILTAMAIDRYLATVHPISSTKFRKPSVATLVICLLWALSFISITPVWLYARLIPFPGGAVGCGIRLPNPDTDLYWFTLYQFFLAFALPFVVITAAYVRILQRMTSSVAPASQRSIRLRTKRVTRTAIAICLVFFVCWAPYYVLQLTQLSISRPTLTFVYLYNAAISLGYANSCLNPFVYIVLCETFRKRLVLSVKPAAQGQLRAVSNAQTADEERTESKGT
# Streptococcus = experiment: Luminescence Microorganism-Based Dose Response Follow up to Identify Compounds Cytotoxic to Streptococcus. [Related pubchem assays: 1677 (Project Summary), 1915, 1914, 1902 (Retest at Dose), 1900 (Counter Screen), 1662 (Primary HTS)]; assay type: functional, organism-based
# [16] = biological target: Lysosomal acid glucosylceramidase (Homo sapiens, UniProt P04062); experiment: Dose response cell-based high throughput screening assay to identify enhancers of beta-glucosidase activity. [Related pubchem assays: 784 ]; assay type: functional
# Lysosomal acid glucosylceramidase, sequence (P04062 whole entry): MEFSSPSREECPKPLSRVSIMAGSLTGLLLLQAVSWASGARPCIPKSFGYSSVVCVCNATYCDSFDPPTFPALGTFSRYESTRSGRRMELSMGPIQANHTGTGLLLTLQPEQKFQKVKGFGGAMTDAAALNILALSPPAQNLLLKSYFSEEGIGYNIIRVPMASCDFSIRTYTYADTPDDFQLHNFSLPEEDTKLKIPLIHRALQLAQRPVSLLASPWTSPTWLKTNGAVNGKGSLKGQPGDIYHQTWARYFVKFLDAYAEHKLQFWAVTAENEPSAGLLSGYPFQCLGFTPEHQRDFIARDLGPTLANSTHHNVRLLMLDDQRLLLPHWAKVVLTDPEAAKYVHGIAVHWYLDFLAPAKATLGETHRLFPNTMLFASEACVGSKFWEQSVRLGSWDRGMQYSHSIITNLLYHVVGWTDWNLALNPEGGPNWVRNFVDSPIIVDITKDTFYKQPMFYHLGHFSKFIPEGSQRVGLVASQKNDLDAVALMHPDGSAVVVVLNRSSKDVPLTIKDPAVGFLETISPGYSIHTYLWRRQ
# [17] = biological target: T5, Eukaryotic translation initiation factor 2-alpha kinase 3 (Homo sapiens, UniProt Q9NZJ5); experiment: Dose response cell-based high-throughput screening assay to measure PERK inhibition. [Related pubchem assays: 1416 ]; assay type: functional
# T5 sequence (Q9NZJ5 whole entry): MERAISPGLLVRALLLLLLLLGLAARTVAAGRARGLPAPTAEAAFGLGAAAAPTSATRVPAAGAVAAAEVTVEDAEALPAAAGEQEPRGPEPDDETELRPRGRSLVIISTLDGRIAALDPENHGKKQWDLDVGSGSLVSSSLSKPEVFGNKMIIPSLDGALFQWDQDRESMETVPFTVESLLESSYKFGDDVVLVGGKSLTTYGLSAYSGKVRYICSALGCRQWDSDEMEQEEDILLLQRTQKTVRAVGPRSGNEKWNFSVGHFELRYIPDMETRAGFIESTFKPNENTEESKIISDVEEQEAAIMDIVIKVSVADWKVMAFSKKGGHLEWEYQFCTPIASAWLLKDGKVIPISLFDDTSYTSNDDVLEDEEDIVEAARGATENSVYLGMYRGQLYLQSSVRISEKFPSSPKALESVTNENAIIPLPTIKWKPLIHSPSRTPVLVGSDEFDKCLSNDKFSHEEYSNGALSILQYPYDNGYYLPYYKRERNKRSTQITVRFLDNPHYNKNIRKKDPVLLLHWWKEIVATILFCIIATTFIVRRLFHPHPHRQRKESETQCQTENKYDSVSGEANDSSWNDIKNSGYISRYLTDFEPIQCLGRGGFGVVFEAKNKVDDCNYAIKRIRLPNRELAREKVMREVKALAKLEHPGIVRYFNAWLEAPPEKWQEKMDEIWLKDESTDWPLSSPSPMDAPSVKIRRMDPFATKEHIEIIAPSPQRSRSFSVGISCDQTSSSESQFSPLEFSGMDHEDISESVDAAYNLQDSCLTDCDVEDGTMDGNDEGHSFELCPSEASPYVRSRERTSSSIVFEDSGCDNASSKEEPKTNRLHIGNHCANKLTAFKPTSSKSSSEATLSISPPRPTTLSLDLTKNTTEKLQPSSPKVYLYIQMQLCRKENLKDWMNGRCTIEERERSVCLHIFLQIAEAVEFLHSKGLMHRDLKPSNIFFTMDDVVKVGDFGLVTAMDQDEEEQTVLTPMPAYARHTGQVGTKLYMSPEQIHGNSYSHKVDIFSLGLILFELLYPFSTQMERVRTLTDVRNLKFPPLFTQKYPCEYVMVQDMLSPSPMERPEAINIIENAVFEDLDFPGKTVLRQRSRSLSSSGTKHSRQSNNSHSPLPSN
# [18] = biological target: T5, Eukaryotic translation initiation factor 2-alpha kinase 3; experiment: Counterscreen assay for PERK inhibitors: Dose response cell-based high throughput screening assay to measure inhibition of PERK at 6 hours. [Related pubchem assays: 1522, 1416 ]; assay type: functional
# [19] = A Cell Based Secondary Assay To Explore Cytotoxicity of Compounds that Sensitize Mycobacterium Tuberculosis to Beta-Lactam Antibiotics.; assay type: functional
smiles,measurement,setting,value
C=CCN1C=CC(=CC=C(C#N)C#N)C=C1,IC50,[1],> 55.7 µM (not active)
same,IC50,Leucine aminopeptidase,72.2 µM (active)
same,IC50,Insulin-degrading enzyme,10.4 µM (not active)
same,EC50,[2],> 100 µM (active)
CCOC(=O)OCC1OC(C#Cc2ccccc2)C=CC1Oc1cccc(N(C)C)c1 (stereo unspecified),AC50,Cytochrome P450 2D6,3.98 µM (inconclusive)
CCn1nc([N+](=O)[O-])c(C(C#N)c2nc3cc(C(F)(F)F)ccc3s2)c(Cl)c1=O (stereo unspecified),CC50,Vero,> 40 µM (active)
same,IC50,[3],3.87 µM (active)
same,IC50,HEK293 [4],11 µM (active)
same,IC50,[5],> 50 µM (not active)
same,IC50,HEK293 [6],2.78 µM (active)
same,IC50,Nonstructural protein 1,19.9 µM (active)
same,IC50,[7],> 50 µM (not active)
same,IC50,Genome polyprotein,57.5 µM (active)
same,EC50,HEK293 [8],6.94 µM (active)
same,IC50,[9],11.9 µM (active)
same,IC50,HEK293 [10],3.47 µM (inactive)
same,AC50,[11],19 µM (active)
CC(C)C(=O)N1CCN(c2ccccc2NC(=O)c2ccc([N+](=O)[O-])o2)CC1,EC50,[12],> 60 µM (not active)
same,IC50,[13],> 43.8 µM (not active)
same,EC50,[14],0.431 µM (active)
same,IC50,[15],64.4 µM (not active)
CN(C)C1C(=O)C(C(N)=O)C(=O)C2(O)C(=O)C3C(=O)c4c(O)cccc4C(C)(O)C3CC12 (stereo unspecified),EC50,Streptococcus,0.402 µM (active)
CCOC(=O)N1CCC2(CC1)C(C#N)=C(N)Oc1c2c(C)nn1-c1cccc(Cl)c1,EC50,[16],> 10 µM (not active)
Cc1cscc1NC(=O)/C=C/C(=O)O,EC50,[17],> 55.7 µM (not active)
same,EC50,[18],> 55.7 µM (not active)
O=C(CSc1nnc(SCc2ccccc2)s1)N/N=C/c1ccc(Cl)cc1Cl,CC50,[19],38.4 µM (active)
